This data set addresses T1, stearoyl-CoA desaturase (SCD) (Mus musculus, UniProt P13516).
T1 sequence (P13516 1-355): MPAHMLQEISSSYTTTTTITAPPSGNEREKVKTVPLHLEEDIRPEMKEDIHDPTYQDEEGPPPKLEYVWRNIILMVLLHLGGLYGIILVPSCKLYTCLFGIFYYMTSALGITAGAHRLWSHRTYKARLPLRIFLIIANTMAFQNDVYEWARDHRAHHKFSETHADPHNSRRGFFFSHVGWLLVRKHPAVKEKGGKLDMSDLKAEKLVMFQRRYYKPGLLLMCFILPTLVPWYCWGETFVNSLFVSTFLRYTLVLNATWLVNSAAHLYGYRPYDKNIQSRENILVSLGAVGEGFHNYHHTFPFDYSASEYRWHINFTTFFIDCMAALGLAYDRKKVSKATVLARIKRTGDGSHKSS
In words: Stearoyl-CoA desaturase inhibition using mouse liver microsomes (HTS microsomal assay, IC50 follow-up). The note with it: % SCD enzyme activity remaining at 10 μM test compound. Background: Liver microsomes are vesicles of endoplasmic reticulum, rich in cytochrome P450 enzymes.
Description: Livers are immediately rinsed with cold 0.9% NaCl solution, weighed and minced with scissors. All procedures are performed at 4° C. unless specified otherwise. Livers are homogenized in a solution (1:3 w/v) containing 0.25 M sucrose, 62 mM potassium phosphate buffer (pH 7.0), 0.15 M KCl, 1.5 mM N-acetyleysteine, 5 mM MgCl2, and 0.1 mM EDTA using 4 strokes of a Potter-Elvehjem tissue homogenizer. The homogenate is centrifuged at 10,400×g for 20 min to eliminate mitochondria and cellular debris. The supernatant is filtered through a 3-layer cheesecloth and centrifuged at 105,000×g for 60 min. The microsomal pellet is gently resuspended in the same homogenization solution with a small glass/teflon homogenizer and stored at −70° C. The absence of mitochondrial contamination is enzymatically assessed. The protein concentration is measured using bovine serum albumin as the standard.
The tubes are vortexed vigorously and after 15 min incubation in a shaking water bath (37° C.), the reactions are stopped and fatty acids are analyzed.
Fatty acids are analyzed as follows: The reaction mixture is saponified with 10% KOH to obtain free fatty acids which are further methylated using BF3 in methanol. […] Fatty acid methyl esters are separated isocratically with acetonitrile/water (95:5 v:v) at a flow rate of 1 mL/min and are identified by comparison with authentic standards.
The compounds are analyzed with an HTS microsomal assay. The activities are defined in terms of % SCD enzyme activity remaining at the selected concentration (e.g., 10 μM) of the test compounds.
Turning to `O=C(NCCc1ccccc1)Nc1ccc(N2CCN(C(=O)c3ccccc3C(F)(F)F)CC2)nn1`, the “Mouse Microsome 10% remaining @ 10 μM” value was determined as 15%.
Take `O=C(Nc1ccc(N2CCN(C(=O)c3ccccc3C(F)(F)F)CC2)nn1)Nc1ccccc1F` [1-(2-FLUOROPHENYL)-3-{6-[4-(2-TRIFLUOROMETHYLBENZOYL)PIPERAZIN-1-YL]-PYRIDAZIN-3-YL}UREA]: the “Mouse Microsome 10% remaining @ 10 μM” value is on record as 73%.
Turning to `O=C(NCc1ccc(F)cc1)Nc1ccc(N2CCN(C(=O)c3ccccc3C(F)(F)F)CC2)nn1` [1-(4-FLUOROBENZYL)-3-{6-[4-(2-TRIFLUOROMETHYLBENZOYL)PIPERAZIN-1-YL]-PYRIDAZIN-3-YL}UREA], the “Mouse Microsome 10% remaining @ 10 μM” value is 6%.
As for `O=C(Nc1ccc(F)cc1)Nc1ccc(N2CCN(C(=O)c3ccccc3C(F)(F)F)CC2)nn1` [1-(4-FLUOROPHENYL)-3-{6-[4-(2-TRIFLUOROMETHYLBENZOYL)PIPERAZIN-1-YL]-PYRIDAZIN-3-YL}UREA], the “Mouse Microsome 10% remaining @ 10 μM” value is 82%.
Turning to `O=C(NCc1ccccc1)Nc1ccc(N2CCN(C(=O)c3ccccc3C(F)(F)F)CC2)nn1` [1-BENZYL-3-{6-[4-(2-TRIFLUOROMETHYLBENZOYL)PIPERAZIN-1-YL]PYRIDAZIN-3-YL}UREA], the “Mouse Microsome 10% remaining @ 10 μM” value is 8%.
As for `CCCCNC(=O)Nc1ccc(N2CCN(C(=O)c3ccccc3C(F)(F)F)CC2)nn1` [1-BUTYL-3-{6-[4-(2-TRIFLUOROMETHYLBENZOYL)PIPERAZIN-1-YL]PYRIDAZIN-3-YL}UREA], the figure is 13%; as for `CCCCCNC(=O)Nc1ccc(N2CCN(C(=O)c3ccccc3C(F)(F)F)CC2)nn1` [1-PENTYL-3-{6-[4-(2-TRIFLUOROMETHYLBENZOYL)PIPERAZIN-1-YL]PYRIDAZIN-3-YL}UREA], 6%; as for `CC(NC(=O)Nc1ccc(N2CCN(C(=O)c3ccccc3C(F)(F)F)CC2)nn1)c1ccc(F)cc1` (stereo not shown) [1-[1-(4-Fluorophenyl)ethyl]-3-{6-[4-(2-trifluoromethylbenzoyl)piperazin-1-yl]pyridazin-3-yl}urea], 45%.
Consider `O=C(NCCCc1ccc(F)cc1)Nc1ccc(N2CCN(C(=O)c3ccccc3C(F)(F)F)CC2)nn1` [1-[3-(4-Fluorophenyl)propyl]-3-{6-[4-(2-trifluoromethylbenzoyl)piperazin-1-yl]pyridazin-3-yl}urea], for which the “Mouse Microsome 10% remaining @ 10 μM” value is recorded as 14%.
As for `CCOC(=O)CCNC(=O)Nc1ccc(N2CCN(C(=O)c3ccccc3C(F)(F)F)CC2)nn1` [3-(3-{6-[4-(2-TRIFLUOROMETHYLBENZOYL)PIPERAZIN-1-YL]-PYRIDAZIN-3-YL}-UREIDO)PROPIONIC ACID ETHYL ESTER], the figure is 18%; as for `COC(=O)C(CC(C)C)NC(=O)c1ccc(N2CCN(C(=O)c3ccccc3C(F)(F)F)CC2)nn1` (stereo not shown) [4-METHYL-2-({6-[4-(2-TRIFLUOROMETHYLBENZOYL)PIPERAZIN-1-YL]-PYRIDAZINE-3-CARBONYL}AMINO)PENTANOIC ACID METHYL ESTER], 69%; as for `CC(C)(C)OC(=O)N1CCN(c2ccc(C(=O)NCCC3CC3)nn2)CC1` [4-[6-(2-CYCLOPROPYLETHYLCARAMOYL)PYRIDAZIN-3-YL]PIPERAZINE-1-CARBOXYLIC ACID T-BUTYL ESTER], 37%.
Turning to `CC(C)CCNC(=O)c1ccc(N2CCN(C(=O)OC(C)(C)C)CC2)nn1` [4-[6-(3-METHYLBUTYLCARAMOYL)PYRIDAZIN-3-YL]PIPERAZINE-1-CARBOXYLIC ACID T-BUTYL ESTER], the “Mouse Microsome 10% remaining @ 10 μM” value was determined as 11%.
Take `O=C(NCCC1CC1)c1ccc(N2CCN(C(=O)C3CCCCC3)CC2)nn1` [6-(4-CYCLOHEXANECARBONYLPIPERAZIN-1-YL)PYRIDAZINE-3-CARBOXYLIC ACID (2-CYCLOPROPYLETHYL)AMIDE]: the “Mouse Microsome 10% remaining @ 10 μM” value is given as 22%.
As for `CC(C)CCNC(=O)c1ccc(N2CCN(C(=O)c3nnn(Cc4ccccc4)c3C(F)(F)F)CC2)nn1` [6-[4-(1-BENZYL-5-TRIFLUOROMETHYL-1H-[1,2,3]TRIAZOLE-4-CARBONYL)-PIPERAZIN-1-YL]PYRIDAZINE-3-CARBOXYLIC ACID (3-METHYLBUTYL)AMIDE], the “Mouse Microsome 10% remaining @ 10 μM” value amounted to 61%.
Take `O=C(NCCC1CC1)c1ccc(N2CCN(C(=O)C3(O)CC3)CC2)nn1` [6-[4-(1-HYDROXYCYCLOPROPANECARBONYL)PIPERAZIN-1-YL]PYRIDAZINE-3-CARBOXYLIC ACID (2-CYCLOPROPYLETHYL)AMIDE]: the “Mouse Microsome 10% remaining @ 10 μM” value worked out at 73%.
With `CC(C)CCNC(=O)c1ccc(N2CCN(C(=O)c3cnn(C)c3C(F)(F)F)CC2)nn1` [6-[4-(1-METHYL-5-TRIFLUOROMETHYL-1H-PYRAZOLE-4-CARBONYL)PIPERAZIN-1-YL]-PYRIDAZINE-3-CARBOXYLIC ACID (3-METHYLBUTYL)AMIDE], the “Mouse Microsome 10% remaining @ 10 μM” value was determined as 15%.
For the compound `CC(C)CCNC(=O)c1ccc(N2CCN(C(=O)C3(C(F)(F)F)CC3)CC2)nn1` [6-[4-(1-TRIFLUOROMETHYLCYCLOPROPANECARBONYL)PIPERAZIN-1-YL]-PYRIDAZINE-3-CARBOXYLIC ACID (3-METHYLBUTYL)AMIDE], the “Mouse Microsome 10% remaining @ 10 μM” value was 26%.
For the compound `O=C(NCCC1CC1)c1ccc(N2CCN(Cc3ccc(Cl)cc3Cl)CC2)nn1` [6-[4-(2,4-DICHLOROBENZYL)-PIPERAZIN-1-YL]PYRIDAZINE-3-CARBOXYLIC ACID (2-CYCLOPROPYLETHYL)AMIDE], the “Mouse Microsome 10% remaining @ 10 μM” value is 8%.
As for `O=C(NCCC1CC1)c1ccc(N2CCN(C(=O)c3cc(C(F)(F)F)ccc3C(F)(F)F)CC2)nn1` [6-[4-(2,5-BIS-TRIFLUOROMETHYLBENZOYL)PIPERAZIN-1-YL]PYRIDAZINE-3-CARBOXYLIC ACID (2-CYCLOPROPYLETHYL)AMIDE], the figure is 6%; as for `O=C(NCCC1CC1)c1ccc(N2CCN(Cc3cc(Cl)ccc3Cl)CC2)nn1` [6-[4-(2,5-DICHLOROBENZYL)PIPERAZIN-1-YL]PYRIDAZINE-3-CARBOXYLIC ACID (2-CYCLOPROPYLETHYL)AMIDE], 8%; as for `CC(C)CCNC(=O)c1ccc(N2CCN(C(=O)c3ccccc3N)CC2)nn1` [6-[4-(2-AMINOBENZOYL)PIPERAZIN-1-YL]PYRIDAZINE-3-CARBOXYLIC ACID (3-METHYLBUTYL)AMIDE], 23%.
`O=C(NCCC1CC1)c1ccc(N2CCN(Cc3ccc(F)cc3Cl)CC2)nn1` [6-[4-(2-CHLORO-4-FLUOROBENZYL)PIPERAZIN-1-YL]PYRIDAZINE-3-CARBOXYLIC ACID (2-CYCLOPROPYLETHYL)AMIDE]: the “Mouse Microsome 10% remaining @ 10 μM” value is 11%.
Turning to `CCC(CC)C(=O)N1CCN(c2ccc(C(=O)NCCC3CC3)nn2)CC1` [6-[4-(2-ETHYLBUTYRYL)PIPERAZIN-1-YL]PYRIDAZINE-3-CARBOXYLIC ACID (2-CYCLOPROPYLETHYL)AMIDE], the “Mouse Microsome 10% remaining @ 10 μM” value stood at 36%.
In the case of `CC(C)CCNC(=O)c1ccc(N2CCN(C(=O)c3ccccc3[N+](=O)[O-])CC2)nn1` [6-[4-(2-NITROBENZOYL)PIPERAZIN-1-YL]PYRIDAZINE-3-CARBOXYLIC ACID (3-METHYLBUTYL)AMIDE], the “Mouse Microsome 10% remaining @ 10 μM” value is on record as 8%.
In the case of `O=C(NCC1CC1)c1ccc(N2CCN(C(=O)c3ccccc3C(F)(F)F)CC2)nn1` [6-[4-(2-TRIFLUOROMETHYLBENZOYL)PIPERAZIN-1-YL]PYRIDAZINE-3-CARBOXYLIC ACID CYCLOPROPYLMETHYLAMIDE], the “Mouse Microsome 10% remaining @ 10 μM” value was found to be 49%.
With `O=C(NCCc1ccc(F)cc1F)c1ccc(N2CCN(C(=O)c3ccccc3C(F)(F)F)CC2)nn1` [6-[4-(2-TRIFLUOROMETHYLBENZOYL)PIPERAZIN-1-YL]PYRIDAZINE-3-CARBOXYLIC ACID [2-(2,4-DIFLUOROPHENYL)ETHYL]AMIDE], the “Mouse Microsome 10% remaining @ 10 μM” value is reported as 5%.
The figure for `COc1ccc(CCNC(=O)c2ccc(N3CCN(C(=O)c4ccccc4C(F)(F)F)CC3)nn2)cc1` [6-[4-(2-TRIFLUOROMETHYLBENZOYL)PIPERAZIN-1-YL]PYRIDAZINE-3-CARBOXYLIC ACID [2-(4-METHOXYPHENYL)ETHYL]AMIDE] is 7%.
In the case of `O=C(NCCC1CC1)c1ccc(N2CCN(Cc3ccccc3C(F)(F)F)CC2)nn1` [6-[4-(2-TRIFLUOROMETHYLBENZYL)PIPERAZIN-1-YL]PYRIDAZINE-3-CARBOXYLIC ACID (2-CYCLOPROPYLETHYL)AMIDE], the “Mouse Microsome 10% remaining @ 10 μM” value came to 12%.
The figure for `O=C(NCCC1CC1)c1ccc(N2CCN(C(=O)c3ccoc3C(F)(F)F)CC2)nn1` [6-[4-(2-TRIFLUOROMETHYLFURAN-3-CARBONYL)PIPERAZIN-1-YL]PYRIDAZINE-3-CARBOXYLIC ACID (2-CYCLOPROPYLETHYL)AMIDE] is 7%; for `O=C(NCCc1ccccc1)c1ccc(N2CCN(C(=O)c3ccccc3C(F)(F)F)CC2)nn1` [6-[4-(2-Trifluoromethylbenzoyl)piperazin-1-yl]pyridazine-3-carboxylic acid phenethylamide] it is 0%.
Take `CC(C(=O)N1CCN(c2ccc(C(=O)NCCC3CC3)nn2)CC1)(C(F)(F)F)C(F)(F)F` [6-[4-(3,3,3-TRIFLUORO-2-METHYL-2-TRIFLUOROMETHYLPROPIONYL)PIPERAZIN-1-YL]PYRIDAZINE-3-CARBOXYLIC ACID (2-CYCLOPROPYLETHYL)AMIDE]: the “Mouse Microsome 10% remaining @ 10 μM” value was 8%.
Regarding `CC(C)CCNC(=O)c1ccc(N2CCN(C(=O)c3c(C(F)(F)F)nnn3Cc3ccccc3)CC2)nn1` [6-[4-(3-BENZYL-5-TRIFLUOROMETHYL-3H-[1,2,3]TRIAZOLE-4-CARBONYL)PIPERAZIN-1-YL]PYRIDAZINE-3-CARBOXYLIC ACID (3-METHYLBUTYL)AMIDE], the “Mouse Microsome 10% remaining @ 10 μM” value is reported as 61%.
With `CC(C)CCNC(=O)c1ccc(N2CCN(C(=O)C(C)CC(F)(F)F)CC2)nn1` (stereo not shown) [6-[4-(4,4,4-TRIFLUORO-2-METHYLBUTYRYL)PIPERAZIN-1-YL]PYRIDAZINE-3-CARBOXYLIC ACID (3-METHYLBUTYL)AMIDE], the “Mouse Microsome 10% remaining @ 10 μM” value is on record as 19%.

For the origin of these results see patent US7964591B2, “Pyridazine derivatives and their use as therapeutic agents” (Novartis Pharma AG, priority 2003, dated 2011).
